Results: ChEMBL document CHEMBL1201862, “PubChem BioAssay data set” (2004)
Counter-ions that a name gives are not always drawn.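 These data come from cells grown in 96-well plates and exposed to compound for 48 hours at five concentrations. GI50 marks 50% less growth.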 Activity calls are given as the source filed them. Cut-off read from the data, not from the text of the source: active = GI50 up to about 1.1 µM and inactive = higher.

Experiments:
Assay in all cases: DTP human tumour cell line panel, 48 h
OVCAR-4 = test system: OVCAR-4
HT-29 = test system: HT-29
CAKI-1 = test system: CAKI-1
SW-620 = test system: SW-620
NCI-H522 = test system: NCI-H522
NCI-H460 = test system: NCI-H460
MOLT-4 = test system: MOLT-4
NCI-H23 = test system: NCI-H23
UO-31 = test system: UO-31
DMS-273 = test system: DMS-273
U-251 = test system: U-251
KM-20L2 = test system: KM-20L2
A498 = test system: A498
MDA-MB-231 = test system: MDA-MB-231
DU-145 = test system: DU-145
Hs-578T = test system: Hs-578T
NCI/ADR-RES = test system: NCI/ADR-RES
BT-549 = test system: BT-549
MCF7 = test system: MCF7
T47D = test system: T47D

Row | SMILES | GI50 (OVCAR-4) | GI50 (HT-29) | GI50 (CAKI-1) | GI50 (SW-620) | GI50 (NCI-H522) | GI50 (NCI-H460) | GI50 (MOLT-4) | GI50 (NCI-H23) | GI50 (UO-31) | GI50 (DMS-273) | GI50 (U-251) | GI50 (KM-20L2) | GI50 (A498) | GI50 (MDA-MB-231) | GI50 (DU-145) | GI50 (Hs-578T) | GI50 (NCI/ADR-RES) | GI50 (BT-549) | GI50 (MCF7) | GI50 (T47D)
1 | COc1cc(-c2cc(O)c3cc4c(cc3n2)OCO4)cc(OC)c1OC | > 100 µM (inactive) | > 100 µM (inactive) | > 100 µM (inactive) | > 100 µM (inactive) | 62.7 µM (inactive) | > 100 µM (inactive) | > 100 µM (inactive) | 56.2 µM (inactive) | > 100 µM (inactive) | 46.2 µM (inactive) | 60 µM (inactive) |  |  |  |  |  |  |  |  | 
2 | COc1ccc(C(c2ccc(C(C)C)cc(=O)c2O)c2ccc3cccnc3c2O)cc1 (stereo not given) | 2.88 µM (inactive) | 3.07 µM (inactive) | 1.79 µM (inactive) | 3.68 µM (inactive) | 1.8 µM (inactive) | 0.297 µM (active) | 0.558 µM (active) | 0.349 µM (active) | 0.421 µM (active) | 0.31 µM (active) | 0.438 µM (active) |  |  |  |  |  |  |  |  | 
3 | CCCCCC(/C=C/c1ncccc1OCCCCCC(=O)O)=N\NC1=NCCN1 | 78.7 µM (inactive) | > 100 µM (inactive) | > 100 µM (inactive) | 85.1 µM (inactive) | 50.8 µM (inactive) | 51.9 µM (inactive) | 62.7 µM (inactive) |  | > 100 µM (inactive) | 42.9 µM (inactive) |  | > 100 µM (inactive) |  |  |  |  |  |  |  | 
4 | O=C(CC1Sc2ccccc2NC1=O)Nc1ccc(Cl)cc1 (stereo not given) | 18.2 µM (inactive) | > 100 µM (inactive) | > 100 µM (inactive) | > 100 µM (inactive) | > 100 µM (inactive) | > 100 µM (inactive) | > 100 µM (inactive) | 46.2 µM (inactive) | > 100 µM (inactive) | 83.4 µM (inactive) | > 100 µM (inactive) | 89.1 µM (inactive) | > 100 µM (inactive) |  |  |  |  |  |  | 
5 | Clc1ccccc1C(n1ncc2ccccc21)n1ncc2ccccc21 | 51.6 µM (inactive) | 35.9 µM (inactive) | 30.6 µM (inactive) | 29.7 µM (inactive) | 15.1 µM (inactive) | 35.8 µM (inactive) | 18.9 µM (inactive) | 24 µM (inactive) | 31.3 µM (inactive) | 45.2 µM (inactive) | 35.8 µM (inactive) |  | 35.6 µM (inactive) |  |  |  |  |  |  | 
6 | Cc1cc(N(CCC#N)CCC#N)ccc1/C=C(\NC(=O)/C=C/c1ccccc1)C(=O)Nc1ccccc1Cl | > 100 µM (inactive) | > 100 µM (inactive) | 78.7 µM (inactive) | > 100 µM (inactive) |  | > 100 µM (inactive) | > 100 µM (inactive) | > 100 µM (inactive) | > 100 µM (inactive) | > 100 µM (inactive) | 59.6 µM (inactive) | > 100 µM (inactive) | > 100 µM (inactive) |  |  |  |  |  |  | 
7 | CN1C2CCC1/C(=C/c1cccc3c1OCO3)C(=O)/C2=C\c1cccc2c1OCO2 |  | > 100 µM (inactive) |  | > 100 µM (inactive) |  | > 100 µM (inactive) | > 100 µM (inactive) | > 100 µM (inactive) | > 100 µM (inactive) | 45 µM (inactive) | 24.5 µM (inactive) | > 100 µM (inactive) |  |  |  |  |  |  |  | 
8 | COC(=O)C1=C(C)N2CCOC2CC1c1ccccc1 (stereo not given) | > 100 µM (inactive) | > 100 µM (inactive) | > 100 µM (inactive) | > 100 µM (inactive) |  | > 100 µM (inactive) | 77.4 µM (inactive) | 84.1 µM (inactive) | > 100 µM (inactive) |  |  | > 100 µM (inactive) |  |  |  |  |  |  |  | 
9 | OC[P+](CO)(CO)C12CC3CC(CC(C3)C1)C2 | > 48.3 µM (inactive) | 48.5 µM (inactive) | > 100 µM (inactive) | > 100 µM (inactive) | > 70.8 µM (inactive) | 76.4 µM (inactive) | 26.4 µM (inactive) | > 88.3 µM (inactive) | > 78.3 µM (inactive) |  | > 100 µM (inactive) |  | > 100 µM (inactive) | > 100 µM (inactive) | > 100 µM (inactive) | > 100 µM (inactive) | > 100 µM (inactive) | > 100 µM (inactive) | > 100 µM (inactive) | > 100 µM (inactive)
10 | O=C1C(=C2CCCC2)CCC1CN1CCCCC1 (stereo not given) | 16.5 µM (inactive) | 20.4 µM (inactive) |  | 16.4 µM (inactive) | 1.77 µM (inactive) | > 10 µM (inactive) | 18.5 µM (inactive) | 18.7 µM (inactive) | > 100 µM (inactive) |  | > 100 µM (inactive) | 17.5 µM (inactive) | 19.4 µM (inactive) |  |  |  |  |  |  | 
11 | OCCN1CCN(CCO)Cc2ccccc2OCCOc2ccccc2C1 | > 100 µM (inactive) | 96.8 µM (inactive) | > 100 µM (inactive) | > 100 µM (inactive) | > 100 µM (inactive) | > 100 µM (inactive) | > 100 µM (inactive) | > 100 µM (inactive) | > 100 µM (inactive) | > 100 µM (inactive) | > 100 µM (inactive) | > 100 µM (inactive) | > 100 µM (inactive) |  |  |  |  |  |  | 
12 | N#CC1C(=O)C(=O)N(c2ccccc2)C1=O (stereo not given) | > 100 µM (inactive) | > 100 µM (inactive) | > 100 µM (inactive) | > 100 µM (inactive) | > 100 µM (inactive) | > 100 µM (inactive) |  | > 100 µM (inactive) | > 100 µM (inactive) | > 100 µM (inactive) | > 100 µM (inactive) | > 100 µM (inactive) | > 100 µM (inactive) |  |  |  |  |  |  | 
13 | CC1=C(C(=O)NCc2ccccc2)C(c2ccco2)C(C(=O)NCc2ccccc2)=C(C)N1 | 55.7 µM (inactive) | 53.8 µM (inactive) | 57.5 µM (inactive) | 50.9 µM (inactive) | 85.1 µM (inactive) | > 100 µM (inactive) | 23 µM (inactive) | > 100 µM (inactive) | > 100 µM (inactive) | 66.8 µM (inactive) | > 100 µM (inactive) | 32.5 µM (inactive) | > 100 µM (inactive) |  |  |  |  |  |  | 
14 | CC12CC3CC(C1)CC(N=[N+]=[N-])(C3)C2 | > 100 µM (inactive) | > 100 µM (inactive) | > 100 µM (inactive) | > 100 µM (inactive) | > 100 µM (inactive) | > 100 µM (inactive) | > 100 µM (inactive) | > 100 µM (inactive) | > 100 µM (inactive) | > 100 µM (inactive) | > 100 µM (inactive) | > 100 µM (inactive) | > 100 µM (inactive) |  |  |  |  |  |  | 
15 | CN1Cc2cc3c(cc2-c2ccccc21)OCO3 | > 100 µM (inactive) | > 100 µM (inactive) |  | > 100 µM (inactive) | > 100 µM (inactive) | > 100 µM (inactive) | > 100 µM (inactive) | > 100 µM (inactive) | > 100 µM (inactive) | > 100 µM (inactive) | > 100 µM (inactive) | 91.6 µM (inactive) | > 100 µM (inactive) |  |  |  |  |  |  | 
16 | C/C=C(\C)C(=O)OC1C2C(C)=CC(=O)C(O)C2(C)C2C3(O)OCC24C1OC(=O)C(OC(C)=O)C4C(C)C3O (stereo not given) | 0.11 µM (active) | 0.0385 µM (active) | 0.197 µM (active) | 0.0594 µM (active) |  | 0.0375 µM (active) | 0.0375 µM (active) | 0.043 µM (active) | 0.195 µM (active) | 0.0375 µM (active) | 0.0375 µM (active) | 0.0471 µM (active) | 0.0611 µM (active) |  |  |  | 1.05 µM (active) |  |  | 
17 | NC1C(O)C(O)C(CO)OC1n1cc(F)c(=O)[nH]c1=O (stereo not given) | > 100 µM (inactive) | > 100 µM (inactive) | > 100 µM (inactive) | > 100 µM (inactive) | > 100 µM (inactive) | > 100 µM (inactive) | > 100 µM (inactive) | > 100 µM (inactive) |  | > 100 µM (inactive) | > 100 µM (inactive) |  |  |  |  |  |  |  |  | 
18 | CC1(C)N=C(N)N=C(N)N1c1ccc(CCc2ccccc2)cc1 | 3.53 µM (inactive) | 0.565 µM (active) | 21.6 µM (inactive) | 0.301 µM (active) | 3.03 µM (inactive) | 0.508 µM (active) | 3.61 µM (inactive) | 1.43 µM (inactive) | > 34.1 µM (inactive) | 0.7 µM (active) | 0.435 µM (active) | 1.16 µM (inactive) |  |  |  |  | > 100 µM (inactive) |  | 1.32 µM (inactive) | 
19 | C=CC1(C)CCC2=C(CCC3C(C)(C(=O)OC)CCCC23C)C1=O (stereo not given) | 14.7 µM (inactive) | 17 µM (inactive) | 30.3 µM (inactive) | 17.6 µM (inactive) | 15.1 µM (inactive) | 18.3 µM (inactive) |  | 19.5 µM (inactive) | 20.8 µM (inactive) |  | 15.6 µM (inactive) | 21.3 µM (inactive) | 14.8 µM (inactive) |  |  |  |  |  |  | 
20 | CCOC(=O)CSC(=O)NCCCl | > 100 µM (inactive) | > 100 µM (inactive) | > 100 µM (inactive) | > 100 µM (inactive) | > 100 µM (inactive) | > 100 µM (inactive) |  | > 100 µM (inactive) | > 100 µM (inactive) | > 100 µM (inactive) | > 100 µM (inactive) | > 100 µM (inactive) | > 100 µM (inactive) |  |  |  |  |  |  | 
21 | COc1ccc(N(CC(=O)O)S(=O)(=O)c2ccccc2)cc1 | > 100 µM (inactive) | > 100 µM (inactive) | > 100 µM (inactive) | > 100 µM (inactive) | > 100 µM (inactive) | > 100 µM (inactive) | > 100 µM (inactive) | > 100 µM (inactive) | > 100 µM (inactive) | > 100 µM (inactive) | > 100 µM (inactive) | > 100 µM (inactive) | > 100 µM (inactive) |  |  |  |  |  |  | 
22 | CCCCOC(=O)CC(CC(=O)OCCCC)(OC(C)=O)C(=O)OCCCC [ACETYLTRIBUTYL CITRATE] | > 81.5 µM (inactive) | 60.8 µM (inactive) | > 200 µM (inactive) | > 130 µM (inactive) | 47.5 µM (inactive) | 162 µM (inactive) | 17.2 µM (inactive) | 60.8 µM (inactive) | 39.6 µM (inactive) |  | > 200 µM (inactive) |  | > 200 µM (inactive) | > 200 µM (inactive) | > 106 µM (inactive) | > 123 µM (inactive) | 91.6 µM (inactive) | > 200 µM (inactive) | 39.1 µM (inactive) | 48.4 µM (inactive)
